Literature values, collected in publication PMC8113538, “Acute toxicity analysis of an inhibitor of BCL2, Disarib, in rats” (Scientific Reports, 2021).
Like-named read-outs stand apart in the source and are kept apart here.

Legend:
[1] = set-up: method as in EMA Venclyxto public assessment report, 16; conditions: dogs; ref EMA Venclyxto public assessment report, 16; cited from earlier work
[2] = set-up: method as in EMA Venclyxto public assessment report, 16; conditions: monkey; ref EMA Venclyxto public assessment report, 16; cited from earlier work
[3] = cited from earlier work; for solubility in organic solvents: DMSO and Dimethylformamide
[4] = tested on: platelets; set-up: method as in PMID 26589495; conditions: clinical trials; cited from earlier work
[5] = cited from earlier work
[6] = rats; cited from earlier work
[7] = tested on: circulating platelets; set-up: method as in PMID 26589495, PMID 21094089, PMID 17205078; conditions: preclinical studies; cited from earlier work

| SMILES | half life [1] | half life [2] | solubility in organic solvents [3] | solubility in absolute ethanol [3] | solubility in aqueous buffers [3] | toxic effect on platelets [4] | oral bioavailability (in words) [5] | bioavailability [6] | number of circulating platelets [7] | plasma clearance [5] |
| --- | --- | --- | --- | --- | --- | --- | --- | --- | --- | --- |
| CC1(C)CCC(CN2CCN(c3ccc(C(=O)NS(=O)(=O)c4ccc(NCC5CCOCC5)c([N+](=O)[O-])c4)c(Oc4cnc5[nH]ccc5c4)c3)CC2)=C(c2ccc(Cl)cc2)C1 [ABT199] | 12 h | 2.2 h | showed solubility in organic solvents such as DMSO and Dimethylformamide | soluble in absolute ethanol | minimal | no toxic effect on platelets | orally bioavailable |  |  |  |
| CC1(C)CCC(c2ccc(Cl)cc2)=C(CN2CCN(c3ccc(C(=O)NS(=O)(=O)c4ccc(N[C@H](CCN5CCOCC5)CSc5ccccc5)c(S(=O)(=O)C(F)(F)F)c4)cc3)CC2)C1 [ABT263] |  |  | showed solubility in organic solvents such as DMSO and Dimethylformamide | soluble in absolute ethanol | minimal |  | orally bioavailable | ~ 20% | rapid and concentration-dependent decrease in the number of circulating platelets | low plasma clearance value |
| CN(C)CC[C@H](CSc1ccccc1)Nc1ccc(S(=O)(=O)NC(=O)c2ccc(N3CCN(Cc4ccccc4-c4ccc(Cl)cc4)CC3)cc2)cc1[N+](=O)[O-] [ABT737] |  |  | showed solubility in organic solvents such as DMSO and Dimethylformamide |  | minimal |  | not orally bioavailable |  | rapid and concentration-dependent decrease in the number of circulating platelets | low plasma clearance value |
